From ChEMBL document CHEMBL6083219, “Rationally designed febuxostat-based hydroxamic acid and its pH-Responsive nanoformulation elicits anti-tumor activity” (Eur J Med Chem, 2024)
Activity calls are given as the source filed them. The calls are words filed in the database; no cut-off is given here.

Experiments:
NCI-H1975 = assay type: functional, cell-based; settings: Homo sapiens, NCI-H1975, 48 h
HL-60 [1] = test: Downregulation of HDAC1 expression level in human HL-60 cells at 0.5 to 2 uM by Western blotting analysis; assay type: functional, cell-based; settings: dose 0.5-2 µM
HL-60 [2] = test: Downregulation of HDAC3 expression level in human HL-60 cells at 0.5 to 2 uM by Western blotting analysis; assay type: functional, cell-based; settings: dose 0.5-2 µM
MDA-MB-231 [3] = test: Downregulation of HDAC6 expression level in human MDA-MB-231 cells at 0.5 to 2 uM by Western blotting analysis; assay type: functional, cell-based; settings: dose 0.5-2 µM
HL-60 [4] = test: Upregulation of cleaved caspase-3 expression level in human HL-60 cells at 0.5 to 2 uM by Western blotting analysis; assay type: functional, cell-based; settings: dose 0.5-2 µM
MDA-MB-231 [5] = test: Induction of apoptosis in human MDA-MB-231 cells assessed as G2/M phase arrest at 0.5 to 1 uM incubated for 48 hrs; assay type: functional, cell-based; settings: dose 0.5-1 µM
MDA-MB-231 [6] = test: Induction of apoptosis in human MDA-MB-231 cells assessed as cell death at sub-G1 phase at 0.5 to 1 uM incubated for 48 hrs; assay type: functional, cell-based; settings: dose 0.5-1 µM
MDA-MB-231 [7] = test: Induction of autophagy in human MDA-MB-231 cells assessed as upregulation of LC3-II expression level at 1 to 4 uM by Western blotting assay; assay type: functional, cell-based; settings: dose 1-4 µM
Rattus norvegicus [8] = test: Anti-hyperuricemic activity against potassium oxonate-induced hyperuricemia Wistar rat model assessed as increase in monocytes at 5 mg/kg measured after 14 days; assay type: functional, organism-based; settings: time 14.0 day
Rattus norvegicus [9] = test: Anti-hyperuricemic activity against potassium oxonate-induced hyperuricemia Wistar rat model assessed as increase in platelet counts at 5 mg/kg measured after 14 days; assay type: functional, organism-based; settings: time 14.0 day
Rattus norvegicus [10] = test: Anti-hyperuricemic activity against potassium oxonate-induced hyperuricemia Wistar rat model assessed as improvement in renal condition by measuring decrease in tubular cell necrosis at 10 mg/kg measured after 14 days by H and E staining based assay; assay type: functional, organism-based; settings: time 14.0 day
Rattus norvegicus [11] = test: Anti-hyperuricemic activity against potassium oxonate-induced hyperuricemia Wistar rat model assessed as improvement in renal condition by measuring normal glomeruli size at 10 mg/kg measured after 14 days by H and E staining based assay; assay type: functional, organism-based; settings: time 14.0 day
Rattus norvegicus [12] = test: Anti-hyperuricemic activity against potassium oxonate-induced hyperuricemia Wistar rat model assessed as increase in number of cuboidal cells at 10 mg/kg measured after 14 days by H and E staining based assay; assay type: functional, organism-based; settings: time 14.0 day
HL-60 [13] = test: Cytotoxicity against human HL-60 cells incubated for 1 day by MTT assay; assay type: functional, cell-based; settings: HL-60, 24 h
HH = test: Cytotoxicity against human HH cells incubated for 1 day by MTT assay; assay type: functional, cell-based; settings: 24 h
MOLT-4 = test: Cytotoxicity against human MOLT-4 cells incubated for 1 day by MTT assay; assay type: functional, cell-based; settings: MOLT-4, 24 h

IC50 (NCI-H1975): 5440 nM
Compound: Cc1nc(-c2ccc(OCC(C)C)c(C#N)c2)sc1C(=O)NCCCCCCC(=O)NO
Activity (HL-60 [1]): Active; Activity More Potent Than Saha
Activity (HL-60 [2]): Active; Activity More Potent Than Saha
Activity (MDA-MB-231 [3]): Active
Activity (HL-60 [4]): Active
Activity (MDA-MB-231 [5]): Active
Activity (MDA-MB-231 [6]): Active
Activity (MDA-MB-231 [7]): Active
Activity (Rattus norvegicus [8]): Active
Activity (Rattus norvegicus [9]): Active
Activity (Rattus norvegicus [10]): Active
Activity (Rattus norvegicus [11]): Active
Activity (Rattus norvegicus [12]): Active
IC50 (HL-60 [13]): 706 nM
IC50 (HH): 1090 nM
IC50 (MOLT-4): 1190 nM
